Data published in PMC60990 (BMC Microbiology, 2001).
One block for each compound: values may come before it.

Experiments:
[1] = biological target: T1, PfPP5 (Plasmodium falciparum, UniProt Q8WQR3); assay: […]-phosphohistone dephosphorylation, phosphomolybdate extraction; assay type: biochemical; conditions: activator, 32P-phosphohistone, pH 7.5, 37°C
T1 sequence (Q8WQR3 1-594): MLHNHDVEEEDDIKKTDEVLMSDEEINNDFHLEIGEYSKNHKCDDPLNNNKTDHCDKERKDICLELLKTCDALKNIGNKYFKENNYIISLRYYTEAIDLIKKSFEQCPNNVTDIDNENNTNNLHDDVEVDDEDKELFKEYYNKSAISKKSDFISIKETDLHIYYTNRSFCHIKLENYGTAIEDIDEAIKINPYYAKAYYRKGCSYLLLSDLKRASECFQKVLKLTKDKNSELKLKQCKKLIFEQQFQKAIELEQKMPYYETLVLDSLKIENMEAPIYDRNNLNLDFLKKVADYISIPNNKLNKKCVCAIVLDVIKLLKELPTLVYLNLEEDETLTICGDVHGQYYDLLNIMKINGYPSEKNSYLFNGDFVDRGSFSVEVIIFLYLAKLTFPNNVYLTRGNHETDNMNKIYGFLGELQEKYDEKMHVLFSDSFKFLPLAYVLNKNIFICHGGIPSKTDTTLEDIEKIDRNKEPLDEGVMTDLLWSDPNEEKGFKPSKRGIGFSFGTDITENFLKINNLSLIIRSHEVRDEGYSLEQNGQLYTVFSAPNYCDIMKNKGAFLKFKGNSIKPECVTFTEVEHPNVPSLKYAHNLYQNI

[2] = biological target: T1, PfPP5; assay: as above; assay type: biochemical; conditions: pH 7.5, 37°C

fold stimulation of activity ([1]; about 70 μM fatty acid): ~ 3 fold
SMILES: CCCCC/C=C\C/C=C\C/C=C\C/C=C\CCCC(=O)O [arachidonic acid]

fold stimulation of activity ([1]; about 80 μM fatty acid): ~ 3 fold
SMILES: CCCCCCCC/C=C\CCCCCCCC(=O)O [oleic acid]

SMILES: CCCCCCCCCCCCCCCCCC(=O)O [stearic acid]
32P-phosphohistone dephosphorylation, phosphomolybdate extraction [2]: stearic acid, a saturated fatty acid, did not appreciably stimulate PfPP5 activity
